Tests used:
Type in all cases: in vivo
[1] = system: bermudagrass (Cynodon dactylon); assay: Test C preemergence
How it was run: (§1)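 Preemergence: seeds sown then treated. Postemergence: plants 2–18 cm, 1- to 4-leaf. Both with surfactant-containing solvent formulation; visual injury scored 0–100 after 12–14 d.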

corn (Zea mays) = assay: Test C preemergence
How it was run: as §1

[2] = system: johnsongrass (Sorghum halepense); assay: Test C preemergence
How it was run: as §1

[3] = system: giant foxtail (Setaria faberii); assay: Test C preemergence
How it was run: as §1

kochia (Kochia scoparia) = assay: Test C preemergence
How it was run: as §1

soybean (Glycine max) = assay: Test C preemergence
How it was run: as §1

[4] = system: Surinam grass (Brachiaria decumbens); assay: Test C preemergence
How it was run: as §1

[5] = system: velvetleaf (Abutilon theophrasti); assay: Test C preemergence
How it was run: as §1

[6] = system: lambsquarters (Chenopodium album); assay: Test C preemergence
How it was run: as §1

[7] = system: cocklebur (Xanthium strumarium); assay: Test C preemergence
How it was run: as §1

[8] = system: common ragweed (Ambrosia elatior); assay: Test C preemergence
How it was run: as §1

Sunflower [9] = assay: Test C preemergence
[10] = system: pigweed (Amaranthus retroflexus); assay: Test C preemergence
How it was run: as §1

Nightshade = assay: Test C preemergence
[11] = system: woolly cupgrass (Eriochloa villosa); assay: Test C preemergence
How it was run: as §1

Sunflower [12] = assay: Test C preemergence; conditions: Rate 250 g/ha, visual evaluation after 12 to 14 days
wild oat (Avena fatua) = assay: Test B postemergence; conditions: 13 to 15 days
How it was run: (§2)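 Ratings on a 0 to 100 visual scale (100 complete control) compare treated plants with controls 13 to 15 days after application. Treatments were pre- or postemergence sprays of compound in non-phytotoxic solvent with surfactant.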

[13] = system: lambsquarters (Chenopodium album); assay: Test B postemergence; conditions: 13 to 15 days
How it was run: as §2

[14] = system: cocklebur (Xanthium strumarium); assay: Test B postemergence; conditions: 13 to 15 days
How it was run: as §2

[15] = system: crabgrass (Digitaria sanguinalis); assay: Test B postemergence; conditions: 13 to 15 days
How it was run: as §2

[16] = Preemergence, Rate 500 g/ha, scale 0 to 100
[17] = Rate 62 g/ha, scale 0 to 100, 0 no effect, 100 complete control
[18] = preemergence, Rate 250 g/ha, visual evaluation after 12 to 14 days
[19] = preemergence, Rate 125 g/ha, scale 0 to 100, 0 no effect, 100 complete control
[20] = Rate 125 g/ha, scale 0 (no effect) to 100 (complete control)
[21] = Rate 500 g/ha, scale 0 to 100, 0 is no effect, 100 is complete control

O=C1C(n2ccc(C3CCC3)n2)SCN1c1cccc(OC(F)F)c1 (centres unmarked) [Compound 45]
Plant response rating, Bermudagrass [1, 16]: 100
Plant response rating, Bermudagrass [1, 17]: 50
Plant response rating (0 to 100 where 0 is no effect and 100 is complete control), Bermudagrass [1, 18]: 100
Plant response rating, Bermudagrass [1, 19]: 90
Plant response rating, Corn (corn (Zea mays); [16]): 0
Plant response rating, Corn (corn (Zea mays); [17]): 0
Plant response rating (0 to 100), Corn (corn (Zea mays); [18]): 0
Plant response rating, Corn (corn (Zea mays); [19]): 0
Plant response rating, Johnsongrass [2, 16]: 100
Plant response rating, Johnsongrass [2, 17]: 0
Plant response rating (0 to 100), Johnsongrass [2, 18]: 50
Plant response rating, Johnsongrass [2, 19]: 0
Plant response rating, Foxtail, Giant [3, 16]: 90
Plant response rating, Foxtail, Giant [3, 17]: 30
Plant response rating (0 to 100), Foxtail, Giant [3, 18]: 40
Plant response rating, Foxtail, Giant [3, 19]: 40
Plant response rating, Kochia (kochia (Kochia scoparia); [16]): 100
Plant response rating, Kochia (kochia (Kochia scoparia); [17]): 20
Plant response rating (0 to 100), Kochia (kochia (Kochia scoparia); [18]): 90
Plant response rating, Kochia (kochia (Kochia scoparia); [19]): 60
Plant response rating, Soybean (soybean (Glycine max); [16]): 0
Plant response rating, Soybean (soybean (Glycine max); [17]): 0
Plant response rating (0 to 100), Soybean (soybean (Glycine max); [18]): 0
Plant response rating, Soybean (soybean (Glycine max); [19]): 0
Plant response rating, Surinam grass [4, 16]: 70
Plant response rating, Surinam grass [4, 17]: 0
Plant response rating (0 to 100), Surinam grass [4, 18]: 40
Plant response rating, Surinam grass [4, 19]: 0
Plant response rating, Velvetleaf [5, 16]: 30
Plant response rating, Velvetleaf [5, 17]: 0
Plant response rating (0 to 100), Velvetleaf [5, 18]: 20
Plant response rating, Velvetleaf [5, 19]: 0
Plant response rating, Lambsquarters [6, 16]: 100
Plant response rating, Lambsquarters [6, 17]: 60
Plant response rating (0 to 100), Lambsquarters [6, 18]: 100
Plant response rating, Lambsquarters [6, 19]: 100
Plant response rating, Cocklebur [7, 16]: 90
Plant response rating (0 to 100), Cocklebur [7, 18]: 20
Plant response rating, Cocklebur [7, 19]: 0
Plant response rating, Ragweed, Common [8, 16]: 60
Plant response rating, Ragweed, Common [8, 17]: 0
Plant response rating (0 to 100), Ragweed, Common [8, 18]: 30
Plant response rating, Ragweed, Common [8, 19]: 0
Plant response rating, Sunflower (Sunflower [9]; [17]): 20
Plant response rating, Sunflower (Sunflower [9]; Rate 500 g/ha, scale 0 to 100): 70
Plant response rating, Pigweed [10, 16]: 30
Plant response rating, Pigweed [10, 17]: 0
Plant response rating (0 to 100), Pigweed [10, 18]: 0
Plant response rating, Pigweed [10, 19]: 0
Plant response rating, Nightshade (Nightshade; [17]): 0
Plant response rating, Nightshade (Nightshade; Rate 125 g/ha, scale 0 to 100, 0 no effect, 100 complete control): 0
Plant response rating, Nightshade (Nightshade; Rate 500 g/ha, scale 0 to 100): 40
Plant response rating, Cupgrass, Woolly [11, 16]: 100
Plant response rating, Cupgrass, Woolly [11, 17]: 0
Plant response rating (0 to 100), Cupgrass, Woolly [11, 18]: 70
Plant response rating, Cupgrass, Woolly [11, 19]: 30
Plant response rating (0 to 100), Sunflower (Sunflower [12]): 20
Plant response rating, Wild Oat (wild oat (Avena fatua); [20]): 0
Plant response rating, Wild Oat (wild oat (Avena fatua); [21]): 0
Plant response rating, Lambsquarters [13, 20]: 0
Plant response rating, Lambsquarters [13, 21]: 0
Plant response rating, Cocklebur [14, 20]: 20
Plant response rating, Cocklebur [14, 21]: 40
Plant response rating, Crabgrass [15, 20]: 0
Plant response rating, Crabgrass [15, 21]: 0

From patent US7138361B2, “Herbicidal heterocycles” (E. I. du Pont de Nemours and Company, priority 2000, dated 2006)
